Results on 21 molecules are retold here after patent publication US20170007615A1, “Antibacterial Compounds” (priority 2014, published 2017).

For assay [1], the system named is S. aureus (ATCC 29213). The assay is described as follows: Antibacterial activity (MIC), Gram-positive type strain. It counts as cell-based, Staphylococcus aureus. As to conditions: Staphylococcus aureus, ATCC29213; Table 13.
The test system of assay [2] is E. faecalis (ATCC 29212). The assay is described as above. In kind it is cell-based, Enteroccocus faecalis. As to conditions: Enterococcus faecalis, ATCC29212; Table 13.
Assay [3] concerns H. influenzae (ATCC 49247). The assay is described as follows: Antibacterial activity (MIC), Gram-negative type strain. It counts as cell-based, Haemophilus influenzae. As to conditions: Haemophilus influenzae, ATCC49247; Table 13.
The test system of assay [4] is N. gonorrheae (ATCC 49226). Described as above. It counts as cell-based, Neisseria gonorrhoeae. As to conditions: Neisseria gonorrhoeae, ATCC49226; Table 13.
The subject of assay [5] is E. coli (ATCC 25922). As to conditions: for MIC of Compound (μg/ml) in the presence of PMBN (128 μg/ml): Table 1, (b) No effect; for MIC of Compound (μg/ml) in the presence of PMBN (32 μg/ml): Table 12, (b) No significant effect.
Assay [6] has as its system E. coli (ATCC 25922). Description: microbe, parasite or virus in culture. As to conditions: Escherichia coli.
The mark [7] stands for this setting: ATCC25922, read-out: MIC Compound alone, Table 1.
Where [8] appears, read: ATCC25922, read-out: MIC Compound alone, Table 12.
Setting [9] is: ATCC25922, read-out: MIC Compound alone.

≈ marks a conversion by molar mass, not a printed value. Like-named read-outs stand apart in the source and are kept apart here.

For the molecule `CCNC(=O)Nc1nc2cc(-c3cnc(N4CCCCS4(=O)=O)nc3)cc(-c3ccccn3)c2s1` [Compound A-24, 1-(5-(2-(1,1-dioxido-1,2-thiazinan-2-yl)pyrimidin-5-yl)-7-(pyridin-2-yl)benzo[d]thiazol-2-yl)-3-ethyl-urea], the MIC amounted to 0.06 µg/mL (≈ 0.118 µM) in assay [1], 0.03 µg/mL (≈ 0.0589 µM) in assay [2], 0.5 µg/mL (≈ 0.981 µM) in assay [3] and 0.12 µg/mL (≈ 0.235 µM) in assay [4].
For `CCNC(=O)Nc1nc2cc(-c3ccc(N4CCCS4(=O)=O)nc3)cc(-c3ccccn3)c2s1` [Compound A-25, 1-[5-[6-(1,1-dioxo-1,2-thiazolidin-2-yl)-3-pyridyl]-7-(2-pyridyl)-1,3-benzothiazol-2-yl]-3-ethylurea], the MIC is 0.06 µg/mL (≈ 0.121 µM) in assay [1], 0.06 µg/mL (≈ 0.121 µM) in assay [2], 1 µg/mL (≈ 2.02 µM) in assay [3] and 0.5 µg/mL (≈ 1.01 µM) in assay [4].
As for `CCNC(=O)Nc1nc2cc(-c3cnc(N4CCCS4(=O)=O)nc3)cc(-c3ccccn3)c2s1` [Compound A-26, 1-(5-(2-(1,1-dioxidoisothiazolidin-2-yl)pyrimidin-5-yl)-7-(pyridin-2-yl)benzo[d]thiazol-2-yl)-3-ethylurea], the MIC was determined as 0.06 µg/mL (≈ 0.121 µM) in assay [1], 0.06 µg/mL (≈ 0.121 µM) in assay [2], 0.5 µg/mL (≈ 1.01 µM) in assay [3] and 0.25 µg/mL (≈ 0.504 µM) in assay [4].
For `CCNC(=O)Nc1nc2cc(-c3cnc(N4CCCS4(=O)=O)nc3)cc(-c3ccc(C)cn3)c2s1` [Compound A-28, 1-(5-(2-(1,1-dioxidoisothiazolidin-2-yl)pyrimidin-5-yl)-7-(5-methylpyridin-2-yl)benzo[d]thiazol-2-yl)-3-ethylurea], the MIC came to 0.03 µg/mL (≈ 0.0589 µM) in assay [1], 0.015 µg/mL (≈ 0.0294 µM) in assay [2], 0.12 µg/mL (≈ 0.235 µM) in assay [3] and 0.03 µg/mL (≈ 0.0589 µM) in assay [4].
`CCNC(=O)Nc1nc2cc(-c3cnc(NS(C)(=O)=O)nc3)cc(-c3ccc(C)cn3)c2s1` [Compound A-30, N-(5-(2-(3-ethylureido)-7-(5-methylpyridin-2-yl)benzo[d]thiazol-5-yl)pyrimidin-2-yl)methanesulfonamide]: the MIC is 0.06 µg/mL (≈ 0.124 µM) in assay [1], ≤ 0.008 µg/mL in assay [2], 0.008 µg/mL (≈ 0.0165 µM) in assay [3] and ≤ 0.008 µg/mL in assay [4].
Take `CCNC(=O)Nc1nc2cc(-c3cnc(NS(C)(=O)=O)nc3)cc(-c3ccccn3)c2s1` [Compound A-31, N-(5-(2-(3-ethylureido)-7-(pyridin-2-yl)benzo[d]thiazol-5-yl)pyrimidin-2-yl)methanesulfonamide]: the MIC in assay [1] came out at 2 µg/mL (≈ 4.26 µM); in assay [2], 0.03 µg/mL (≈ 0.0639 µM); in assay [3], 0.015 µg/mL (≈ 0.0319 µM); in assay [4], 0.03 µg/mL (≈ 0.0639 µM).
For the molecule `CCNC(=O)Nc1nc2cc(-c3cnc(NS(=O)(=O)N(C)C)nc3)cc(-c3ccccn3)c2s1` [Compound A-32, 1-[5-[2-(dimethylsulfamoylamino)pyrimidin-5-yl]-7-(2-pyridyl)-1,3-benzothiazol-2-yl]-3-ethyl urea], the MIC is 0.12 µg/mL (≈ 0.241 µM) in assay [1], 0.015 µg/mL (≈ 0.0301 µM) in assay [2], 0.015 µg/mL (≈ 0.0301 µM) in assay [3] and 0.03 µg/mL (≈ 0.0602 µM) in assay [4].
For `CCCS(=O)(=O)Nc1ncc(-c2cc(-c3ccccn3)c3sc(NC(=O)NCC)nc3c2)cn1` [Compound A-33, N-(5-(2-(3-ethylureido)-7-(pyridin-2-yl)benzo[d]thiazol-5-yl)pyrimidin-2-yl)propane-1-sulfonamide], the MIC in assay [1] was found to be 0.25 µg/mL (≈ 0.502 µM); in assay [2], 0.03 µg/mL (≈ 0.0603 µM); in assay [3] it was 0.12 µg/mL (≈ 0.241 µM); in assay [4], 0.03 µg/mL (≈ 0.0603 µM).
`CCNC(=O)Nc1nc2cc(-c3cnc(N4CCC(C)(C(=O)O)CC4)nc3)cc(-c3ccccn3)c2s1` [Example 1 (WO2012/045124), 1-[5-[2-(ethylcarbamoylamino)-7-(2-pyridyl)-1,3-benzothiazol-5-yl]pyrimidin-2-yl]-4-methyl-piperidine-4-carboxylic acid]: in assay [5], the “MIC of Compound (μg/ml) in the presence of PMBN (128 μg/ml)” value (shortened to “MIC of Compound (μg/ml) … (128 μg/ml)”) came out at 0.5 µg/mL. In addition, the MIC in assay [6] (setting [7]) is > 64 µg/mL.
On to `CCNC(=O)Nc1nc2cc(-c3cccnc3)ccc2s1` [Example 1 Compound VI(a) (WO2009/074812), 1-ethyl-3-(5-pyridin-3-yl-benzothiazol-2-yl)-urea], for which, in assay [5], the “MIC of Compound (μg/ml) … (128 μg/ml)” value was found to be 8 µg/mL. Also, in assay [6] (setting [7]), the MIC is > 64 µg/mL.
For the molecule `CCNC(=O)Nc1nc2cc(-c3cnc(C(C)(C)O)nc3)cc(-c3cc(CN4CCOCC4)ccn3)c2s1` [Example 28 (WO2013/138860), 1-ethyl-3-[5-[2-(1-hydroxy-1-methyl-ethyl)pyrimidin-5-yl]-7-[4-(morpholinomethyl)-2-pyridyl]-1,3-benzothiazol-2-yl]urea], the “MIC of Compound (μg/ml) … (128 μg/ml)” value in assay [5] came out at 0.5 µg/mL. The MIC in assay [6] (setting [7]) was > 64 µg/mL.
For the molecule `CCNC(=O)Nc1nc2cc(-c3cccnc3)cc(-c3ncccc3N)c2s1` [Example 94 (WO2007/148093)], in assay [5], the “MIC of Compound (μg/ml) … (128 μg/ml)” value was determined as 32 µg/mL. Further, the MIC in assay [6] (setting [7]) was > 64 µg/mL.
The corresponding values for `CCNC(=O)Nc1nc2cc(-c3cccnc3)cc(-c3ccccn3)c2s1` [Example 163 (WO2007/148093)] are 0.25 µg/mL and > 64 µg/mL.
As to `C[C@@H](O)[C@H]1C(=O)N2C(C(=O)O)=C(SCCN=CN)C[C@H]12` [Imipenem, reference compound], the “MIC of Compound (μg/ml) in the presence of PMBN (32 μg/ml)” value (“MIC of Compound (μg/ml) … (32 μg/ml)” for short) in assay [5] is 0.5^(b) μg/ml. Besides, in assay [6] (setting [8]), the MIC turned out to be 0.5 µg/mL (≈ 1.67 µM).
On to `NC[C@H]1O[C@H](O[C@H]2[C@H](O)[C@@H](O[C@H]3O[C@H](CO)[C@@H](O)[C@H](N)[C@H]3O)[C@H](N)C[C@@H]2N)[C@H](O)[C@@H](O)[C@@H]1O` [Kanamycin, reference compound], for which, in assay [5], the “MIC of Compound (μg/ml) … (32 μg/ml)” value was 4^(b) μg/ml. Also, in assay [6] (setting [8]), the MIC came out at 8 µg/mL (≈ 16.5 µM).
Turning to `C[C@H]1COc2c(N3CCN(C)CC3)c(F)cc3c(=O)c(C(=O)O)cn1c23` [Levofloxacin, reference compound], the “MIC of Compound (μg/ml) … (32 μg/ml)” value in assay [5] is listed as 0.008^(b) μg/ml. Also, in assay [6] (setting [8]), the MIC came out at 0.008 µg/mL (≈ 0.0221 µM).
Turning to `C[C@@H](O)[C@H]1C(=O)N2C(C(=O)O)=C(S[C@@H]3CN[C@H](C(=O)N(C)C)C3)[C@H](C)[C@H]12` [Meropenem, reference compound], the “MIC of Compound (μg/ml) … (32 μg/ml)” value in assay [5] is on record as 0.5^(b) μg/ml. In assay [6] (setting [8]), the MIC was 0.5 µg/mL (≈ 1.3 µM).
As to `CC1COc2c(N3CCN(C)CC3)c(F)cc3c(=O)c(C(=O)O)cn1c23` (stereo not shown) [Ofloxacin, reference compound], in assay [5], the “MIC of Compound (μg/ml) … (128 μg/ml)” value was 0.03^(b) μg/ml. Further, in assay [5] (Table 1 experiment), the “effect of the presence of PMBN on activity compared to compound alone” value is given as “no effect”. In assay [5], the “MIC of Compound (μg/ml) … (32 μg/ml)” value was 0.03^(b) μg/ml. Also, the MIC in assay [6] (setting [7]) and in assay [6] (setting [8]) was 0.03 µg/mL (≈ 0.083 µM) throughout.
In the case of `CCN1CCN(C(=O)N[C@@H](C(=O)N[C@@H]2C(=O)N3[C@@H]2SC(C)(C)[C@@H]3C(=O)O)c2ccccc2)C(=O)C1=O` [Piperacillin, reference compound], the “MIC of Compound (μg/ml) … (32 μg/ml)” value in assay [5] was 0.25 µg/mL. The MIC in assay [6] (setting [9]) was determined as 2 µg/mL (≈ 3.86 µM).
On to `CN(C)[C@@H]1C(O)=C(C(N)=O)C(=O)[C@@]2(O)C(O)=C3C(=O)c4c(O)cccc4[C@@](C)(O)[C@H]3C[C@@H]12` [Tetracycline, reference compound], for which, in assay [5], the “MIC of Compound (μg/ml) … (32 μg/ml)” value is 1^(b) μg/ml. In addition, in assay [6] (setting [9]), the MIC is 1 µg/mL (≈ 2.25 µM).
Regarding `COc1cc(Cc2cnc(N)nc2N)cc(OC)c1OC` [Trimethoprim, reference compound], the “MIC of Compound (μg/ml) … (32 μg/ml)” value in assay [5] is reported as 2^(b) μg/ml. Besides, in assay [6] (setting [8]), the MIC stood at 0.5 µg/mL (≈ 1.72 µM).
